Laboratory results published in ChEMBL document CHEMBL1201862, “PubChem BioAssay data set” (2004).
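Step 1: Grow cells in 96-well plates. Step 2: Expose to compound for 48 hours at 5 concentrations. Step 3: Interpolate endpoints linearly; if unreached, use highest concentration. The concentration for 50% growth inhibition is given as GI50.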 Calls of active or inactive are those of the source. Cut-off read from the data, not from the text of the source: active = GI50 up to about 1.1 µM and inactive = higher.

How the values were obtained:
Experiment in all cases: NCI tumour cell line growth inhibition, 48 h
OVCAR-5 = system: OVCAR-5
HOP-62 = system: HOP-62
RXF 393 = system: RXF 393
SF-295 = system: SF-295
EKVX = system: EKVX
DU-145 = system: DU-145
A549 = system: A549
TK-10 = system: TK-10
SR = system: SR
MDA-MB-435 = system: MDA-MB-435
UACC-257 = system: UACC-257
UACC-62 = system: UACC-62
U-251 = system: U-251
NCI-H23 = system: NCI-H23
T47D = system: T47D
IGROV-1 = system: IGROV-1
PC-3 = system: PC-3
LOX IMVI = system: LOX IMVI
MDA-MB-231 = system: MDA-MB-231
KM12 = system: KM12

Row | Structure (SMILES) | GI50 (OVCAR-5) | GI50 (HOP-62) | GI50 (RXF 393) | GI50 (SF-295) | GI50 (EKVX) | GI50 (DU-145) | GI50 (A549) | GI50 (TK-10) | GI50 (SR) | GI50 (MDA-MB-435) | GI50 (UACC-257) | GI50 (UACC-62) | GI50 (U-251) | GI50 (NCI-H23) | GI50 (T47D) | GI50 (IGROV-1) | GI50 (PC-3) | GI50 (LOX IMVI) | GI50 (MDA-MB-231) | GI50 (KM12)
1 | O=C(Nc1ccc(Nc2ccc3c(c2)C(=O)c2ccccc2C3=O)c2c1C(=O)c1ccccc1C2=O)c1ccccc1 | > 100 µM (inactive) | 44.9 µM (inactive) | 20.3 µM (inactive) | 31.4 µM (inactive) | > 100 µM (inactive) | 80.2 µM (inactive) | > 72.6 µM (inactive) | 95.3 µM (inactive) | 0.989 µM (active) | 3.53 µM (inactive) | > 100 µM (inactive) | > 100 µM (inactive) | 19.5 µM (inactive) | 79.4 µM (inactive) | 42.1 µM (inactive) | 32.3 µM (inactive) | 12.1 µM (inactive) | > 82.2 µM (inactive) | 46.6 µM (inactive) | 34.2 µM (inactive)
2 | O=C(O)CS(=O)(=O)C(c1ccccc1)c1ccccc1 | > 100 µM (inactive) | > 100 µM (inactive) | > 100 µM (inactive) | > 100 µM (inactive) | > 100 µM (inactive) | > 100 µM (inactive) | > 100 µM (inactive) | > 100 µM (inactive) | > 100 µM (inactive) | > 100 µM (inactive) | > 100 µM (inactive) | > 100 µM (inactive) | > 100 µM (inactive) | > 100 µM (inactive) | > 100 µM (inactive) | > 100 µM (inactive) | > 100 µM (inactive) | > 100 µM (inactive) | > 100 µM (inactive) | > 100 µM (inactive)
3 | Cc1cn(CCCCCOC(=O)NC(CCCNC(N)=O)C(=O)O)c(=O)[nH]c1=O (stereo not given) | > 100 µM (inactive) | > 100 µM (inactive) | > 100 µM (inactive) | > 100 µM (inactive) | > 100 µM (inactive) | > 100 µM (inactive) | > 100 µM (inactive) | > 100 µM (inactive) | > 100 µM (inactive) | > 100 µM (inactive) | > 100 µM (inactive) | > 100 µM (inactive) | > 100 µM (inactive) | > 100 µM (inactive) | > 100 µM (inactive) | 65.3 µM (inactive) | > 100 µM (inactive) | > 100 µM (inactive) | > 100 µM (inactive) | > 100 µM (inactive)
4 | COC(=O)C1(c2cc3ccccc3n2S(=O)(=O)c2ccccc2)CC2C=CC1NC2 (stereo not given) | 2.25 µM (inactive) | 1.66 µM (inactive) | 1.76 µM (inactive) | 2.91 µM (inactive) | 4.03 µM (inactive) | 2.4 µM (inactive) | 2.96 µM (inactive) | 2.28 µM (inactive) | 0.216 µM (active) | 1.63 µM (inactive) | 2.22 µM (inactive) | 1.62 µM (inactive) | 1.43 µM (inactive) | 2.18 µM (inactive) | 3.24 µM (inactive) | 1.34 µM (inactive) | 1.61 µM (inactive) | 1.74 µM (inactive) | 1.79 µM (inactive) | 2.47 µM (inactive)
5 | Cn1c(=O)c2ccccc2[n+]2c(-c3cccc([N+](=O)[O-])c3)csc12 | > 100 µM (inactive) | 21.2 µM (inactive) | 43.4 µM (inactive) | 44.8 µM (inactive) | 25.2 µM (inactive) | > 100 µM (inactive) | 91.4 µM (inactive) | 36.4 µM (inactive) | 18.6 µM (inactive) | 63.7 µM (inactive) | > 100 µM (inactive) | 70.3 µM (inactive) | 32.6 µM (inactive) | > 100 µM (inactive) | > 100 µM (inactive) | 68.1 µM (inactive) | 50.5 µM (inactive) | > 100 µM (inactive) | 30.8 µM (inactive) | 58.2 µM (inactive)
6 | C=CCOC(=O)N1c2ccc(O[Si](C)(C)C(C)(C)C)cc2[C@@]23O[C@@]24[C@@H]1C#C/C=C\C#C[C@]3(O)C(OC)(OC)C[C@@H]4C | > 100 µM (inactive) | > 61.7 µM (inactive) | 29.5 µM (inactive) | > 34.1 µM (inactive) | > 38.5 µM (inactive) | > 80 µM (inactive) | 20 µM (inactive) | > 30.5 µM (inactive) | 33.9 µM (inactive) | > 85.1 µM (inactive) | 19 µM (inactive) | 10.8 µM (inactive) | 18.6 µM (inactive) | 16.3 µM (inactive) | 25.3 µM (inactive) | > 100 µM (inactive) | 4.54 µM (inactive) | 16.7 µM (inactive) | > 100 µM (inactive) | > 100 µM (inactive)
7 | COc1cc(CC2c3cc(OC)c(OC)cc3CCN2C)c(Oc2cc3c(cc2OC)-c2c(O)c(OC)cc4c2C(C3)N(C)CC4)cc1OC (stereo not given) | 45.8 µM (inactive) | 23.7 µM (inactive) | 2.11 µM (inactive) | 17.9 µM (inactive) | 20.5 µM (inactive) | 24.1 µM (inactive) | 33.2 µM (inactive) | 22 µM (inactive) | 3.68 µM (inactive) | 24 µM (inactive) | 14.5 µM (inactive) | 20.5 µM (inactive) | 24.5 µM (inactive) | 22.2 µM (inactive) | 22.1 µM (inactive) | 20 µM (inactive) | 23.3 µM (inactive) | 16.5 µM (inactive) | 18.3 µM (inactive) | 15 µM (inactive)
8 | ClCc1nc2cc(Cl)ccc2o1 | 18.7 µM (inactive) | 2.27 µM (inactive) | 12.2 µM (inactive) | 20.3 µM (inactive) | 3.75 µM (inactive) | 6.21 µM (inactive) | 17 µM (inactive) | 2.83 µM (inactive) | 1.7 µM (inactive) | 2.6 µM (inactive) | 9.16 µM (inactive) | 8.15 µM (inactive) | 3.15 µM (inactive) | 8.99 µM (inactive) | 2.44 µM (inactive) | 1.61 µM (inactive) | 5.15 µM (inactive) | 2.44 µM (inactive) | 3.16 µM (inactive) | 12.3 µM (inactive)
9 | O=C1CCCC2(c3ccccc3)Nc3ccccc3N12 (stereo not given) | > 100 µM (inactive) | > 100 µM (inactive) | > 100 µM (inactive) | 97.1 µM (inactive) | > 100 µM (inactive) | > 100 µM (inactive) | > 100 µM (inactive) | > 100 µM (inactive) | 67.8 µM (inactive) | > 100 µM (inactive) | > 100 µM (inactive) | 98.6 µM (inactive) | > 100 µM (inactive) | > 100 µM (inactive) | > 100 µM (inactive) | > 100 µM (inactive) | > 100 µM (inactive) | > 100 µM (inactive) | > 100 µM (inactive) | > 100 µM (inactive)
10 | O=S(=O)(/N=S(/Nc1ccccc1)C(F)(F)Cl)c1ccccc1 (stereo not given) | > 100 µM (inactive) | > 100 µM (inactive) | > 100 µM (inactive) | > 100 µM (inactive) | > 100 µM (inactive) | > 100 µM (inactive) | > 100 µM (inactive) | > 100 µM (inactive) | > 100 µM (inactive) | > 100 µM (inactive) | > 100 µM (inactive) | > 100 µM (inactive) | > 100 µM (inactive) | > 100 µM (inactive) | > 100 µM (inactive) | > 100 µM (inactive) | > 100 µM (inactive) | > 100 µM (inactive) | > 100 µM (inactive) | > 100 µM (inactive)
11 | CCN(CC)CCNc1ccc([N+](=O)[O-])c2nc3ccc(OC)cc3c(N)c12 | 1.7 µM (inactive) | 1.7 µM (inactive) | 1.16 µM (inactive) | 1.37 µM (inactive) | 1.7 µM (inactive) | 1.65 µM (inactive) | 1.27 µM (inactive) | 1.57 µM (inactive) | 0.262 µM (active) | 1.45 µM (inactive) | 1.77 µM (inactive) | 1.7 µM (inactive) | 1.62 µM (inactive) | 1.64 µM (inactive) | 1.26 µM (inactive) | 0.435 µM (active) | 1.36 µM (inactive) | 0.172 µM (active) | 1.16 µM (inactive) | 1.12 µM (inactive)
12 | Cc1cc(Cl)ccc1Nc1nc2c(s1)C(=O)c1ccccc1C2=O | 4.55 µM (inactive) | 5.13 µM (inactive) | 7.28 µM (inactive) | 9.12 µM (inactive) | 9.04 µM (inactive) | 1.68 µM (inactive) | 4.59 µM (inactive) | 16.9 µM (inactive) | 2.8 µM (inactive) | 0.378 µM (active) | 2.53 µM (inactive) | 2.5 µM (inactive) | 3.28 µM (inactive) | 1.84 µM (inactive) | 2.02 µM (inactive) | 4.51 µM (inactive) | 1.82 µM (inactive) | 1.53 µM (inactive) | 1.3 µM (inactive) | 6.01 µM (inactive)
13 | Cc1c(O)c(OC2OC(CO)C(O)C(O)C2O)cc2c1C=C[C@@H]1[C@@]2(C)C(=O)C[C@]2(C)[C@@H]([C@@](C)(O)C(=O)CCC(C)(C)O)[C@H](O)C[C@@]12C (stereo not given in full) | 25.6 µM (inactive) | 31.7 µM (inactive) | 18.6 µM (inactive) | 17.1 µM (inactive) | 28.6 µM (inactive) | 23.7 µM (inactive) | 26.7 µM (inactive) | 18.1 µM (inactive) | 35.9 µM (inactive) | 27.1 µM (inactive) | 20.9 µM (inactive) | 18.1 µM (inactive) | 20.7 µM (inactive) | 17.1 µM (inactive) | 18.7 µM (inactive) | 19.7 µM (inactive) | 21.6 µM (inactive) | 22.6 µM (inactive) | 21.1 µM (inactive) | 25.4 µM (inactive)
14 | CSc1nnc(SCc2nn3c(=O)cc(C)nc3s2)s1 | > 100 µM (inactive) | > 100 µM (inactive) | 66.8 µM (inactive) | > 100 µM (inactive) | > 100 µM (inactive) | > 100 µM (inactive) | > 100 µM (inactive) | > 100 µM (inactive) | > 100 µM (inactive) | > 100 µM (inactive) | > 100 µM (inactive) | > 100 µM (inactive) | > 100 µM (inactive) | > 100 µM (inactive) | > 100 µM (inactive) | > 100 µM (inactive) | > 100 µM (inactive) | > 100 µM (inactive) | > 100 µM (inactive) | > 100 µM (inactive)
